# Measurements from patent US7247306B2, “Bacteria strain and bacteriocin produced therefrom” (Universite Laval, priority 2004, dated 2007).
# Marks after values point to notes of the source that are not given here.
# Experiments:
# Format in all cases: cell-based
# Carnobacterium divergens = assay: Agar diffusion method, spectrum of activity; design: key to Sensitivity to divergicin M35: +, inhibition;; −, no inhibition; conditions: strain ATCC 385
# Method: (§1) Bacteria stocks were maintained as 20% glycerol stock, at −80° C., for further use. Carnobacterium sp. and Lactococcus sp. strains were cultivated in MRS broth comprising 0.1% (vol/vol) Tween 80® in aerobic condition at 30° C., as currently known in the art. Listeria monocytogenes and Escherichia coli were grown in tryptic soy broth (TSB), supplemented with 0.6% (wt/vol) yeast extract in aerobic conditions, at 37° C., while Listeria innocua and L. ivanovii were re-cultivated in TSB with yeast extract and incubated aerobically at 30° C. Streptococcus thermophilus, Propionibacterium sp. and pediococci were activated in MRS broth at 37° C. under aerobic condition. All lactobacilli and bifidobacteria were grown in MRS broth supplemented with 0.05% (wt/vol) L-cysteine-hydrochloride and incubated anaerobically in Oxoid jars using an atmosphere generation system, at 37° C. In prior experiments, bacteria strains were sub-cultured at least three times (1%, vol/vol) in respective media at 24 h intervals.
# (§2) The antibacterial activity of bacteriocin produced by C. divergens M35 was tested toward a variety of bacteria species, listed in Table 1, and belonging to genus Listeria, Lactobacillus, Streptococcus, Lactococcus, Propionibacterium and Escherichia, and was evaluated following the agar diffusion method, as is well known to those skilled in the art.
# Carnobacterium piscicola = assay: Agar diffusion method, spectrum of activity; design: key to Sensitivity to divergicin M35: +, inhibition;; −, no inhibition; conditions: strain ATCC 386
# Method: as §1, §2
# Escherichia coli = assay: Agar diffusion method, spectrum of activity; design: key to Sensitivity to divergicin M35: +, inhibition;; −, no inhibition
# Method: as §1, §2
# L. grayi = assay: Agar diffusion method, spectrum of activity; design: key to Sensitivity to divergicin M35: +, inhibition;; −, no inhibition; conditions: strain LSD 13
# Method: as §1, §2
# L. innocua = assay: Agar diffusion method, spectrum of activity; design: key to Sensitivity to divergicin M35: +, inhibition;; −, no inhibition; conditions: strain HPB13
# Method: as §1, §2
# L. murayi = assay: Agar diffusion method, spectrum of activity; design: key to Sensitivity to divergicin M35: +, inhibition;; −, no inhibition; conditions: strain LSD 14
# Method: as §1, §2
# L. seeligeri = assay: Agar diffusion method, spectrum of activity; design: key to Sensitivity to divergicin M35: +, inhibition;; −, no inhibition; conditions: strain LSD 11
# Method: as §1, §2
# L. welshimeri = assay: Agar diffusion method, spectrum of activity; design: key to Sensitivity to divergicin M35: +, inhibition;; −, no inhibition; conditions: strain LSD 12
# Method: as §1, §2
# Listeria monocytogenes = assay: Agar diffusion method, spectrum of activity; design: key to Sensitivity to divergicin M35: +, inhibition;; −, no inhibition
# Method: as §1, §2
# Bifidobacterium breve = assay: Agar diffusion method, spectrum of activity; design: key: +, inhibition;; −, no inhibition; conditions: strain ATCC 15700
# Method: as §1, §2
# L. ivanovii = assay: Agar diffusion method, spectrum of activity; design: key: +, inhibition;; −, no inhibition
# Method: as §1, §2
# [1] = tested on: Lactobacillus acidophilus; assay: Agar diffusion method, spectrum of activity; design: key: +, inhibition;; −, no inhibition; conditions: strain R 0052
# Method: as §1, §2
# Lactobacillus casei = assay: Agar diffusion method, spectrum of activity; design: key: +, inhibition;; −, no inhibition; conditions: strain R R0256
# Method: as §1, §2
# [2] = tested on: Lactobacillus delbrueckii subsp. lactis; assay: Agar diffusion method, spectrum of activity; design: key: +, inhibition;; −, no inhibition; conditions: strain R 0187
# Method: as §1, §2
# Lactobacillus plantarum = assay: Agar diffusion method, spectrum of activity; design: key: +, inhibition;; −, no inhibition; conditions: strain R 1012
# Method: as §1, §2
# Lactobacillus rhamnosus = assay: Agar diffusion method, spectrum of activity; design: key: +, inhibition;; −, no inhibition; conditions: strain R 0011
# Method: as §1, §2
# Lactobacillus salivarius = assay: Agar diffusion method, spectrum of activity; design: key: +, inhibition;; −, no inhibition; conditions: strain R 0078
# Method: as §1, §2
# [3] = tested on: Lactococcus lactis (subsp. lactis biovar. diacetylactis); assay: Agar diffusion method, spectrum of activity; design: key: +, inhibition;; −, no inhibition
# Method: as §1, §2
# [4] = tested on: Lactococcus lactis (subsp. lactis); assay: Agar diffusion method, spectrum of activity; design: key: +, inhibition;; −, no inhibition; conditions: strain R0058
# Method: as §1, §2
# Pediococcus acidilactici = assay: Agar diffusion method, spectrum of activity; design: key: +, inhibition;; −, no inhibition
# Method: as §1, §2
# Pediococcus pentosaceus = assay: Agar diffusion method, spectrum of activity; design: key: +, inhibition;; −, no inhibition; conditions: strain R 1044
# Method: as §1, §2
# [5] = tested on: Propionibacterium freudenreichii; assay: Agar diffusion method, spectrum of activity; design: key: +, inhibition;; −, no inhibition; conditions: strain R 0501
# Method: as §1, §2
# Propionibacterium sp. = assay: Agar diffusion method, spectrum of activity; design: key: +, inhibition;; −, no inhibition; conditions: strain P5
# Method: as §1, §2
# [6] = tested on: Streptococcus thermophilus; assay: Agar diffusion method, spectrum of activity; design: key: +, inhibition;; −, no inhibition; conditions: strain R 0083
# Method: as §1, §2
# L. innocua HPB13 [7] = assay: Critical-dilution micromethod (microtiter plate assay) on purification stages; conditions: specific activity at stage ni divided by that of the culture supernatant
# Method: The concentrated bacteriocin was further purified by Reverse-Phase Column Liquid Chromatography (RP-HPLC) using a Beckman Gold System (Beckman Coulter Canada Inc., Mississauga, ON, Canada). Briefly, 100 μl of the concentrated bacteriocin were injected into an analytic C18 reverse-phase column (Luna 5μ, 4.6×250 mm, Phenomenex, Calif., USA). Elution was performed at a flow rate of 1 ml/min using a linear gradient from 90% solvent A (0.1% (wt/vol) trifluoroacetic acid (TFA) prepared in 5% (vol/vol) acetonitrile in water) and 10% solvent B (0.1% TFA in 100% acetonitrile) to 42 and 58% of solvents A and B, respectively, for 46 min. Peptide fractions were detected by spectrophotometry by measuring the absorbance at 220 nm and were collected manually. The fractions were concentrated using a speed-vac concentrator, dissolved in acetate buffer ([…], pH 4.0) and assayed for both bacteriocin activity by the critical-dilution micromethod, and protein content.
# Protein concentration was determined as known in the art. […] Optical densities (650 nm) were then measured using a Thermo-max molecular device spectrophotometer (OPTI-Resources Inc., Quebec, PQ, Canada). […]
# The biological activity of divergicin M35 was determined during the purification procedure by both agar diffusion and critical-dilution methods using L. innocua HPB 13 as indicator strain.
# L. innocua HPB13 [8] = assay: Bacteriocin activity during growth of C. divergens M35 in MRS broth, critical-dilution micromethod; conditions: 30° C.
# Method: Protein concentration was determined as known in the art. Two-fold serial dilutions of 125 μl of tested sample were transferred into wells with a flat bottom microtest™ polystyrene microplate (96-well microtest, Becton Dickinson Labware, Franklin Lakes, N.J., USA), previously filled with 125 μl tryptic soy broth supplemented with 0.6% yeast extract (wt/vol). Each well was inoculated with 50 μl of 1000-fold diluted overnight culture of L. innocua HPB13 (final concentration of approximately 10^6 cfu/ml) and incubated at 30° C. for 18 h. Optical densities (650 nm) were then measured using a Thermo-max molecular device spectrophotometer (OPTI-Resources Inc., Quebec, PQ, Canada). The bacteriocin activity, expressed in arbitrary units per milliliter (AU/ml), was defined as the highest bacteriocin dilution showing complete inhibition of the indicator strain (optical density equals to that in un-inoculated media).
# A C. divergens M35 culture were diluted (1% vol/vol) in peptone water (0.1%), plated on MRS agar supplemented with 0.1% vol/vol Tween 80® and incubated aerobically at 30° C. for 24 h. Bacterial viable counts, bacteriocin activity and pH were determined at 2 h intervals. Bacteriocin activity was determined according to the critical-dilution micromethod described hereinabove, using 5 ml of culture supernatant, separated by centrifugation and heated at 100° C.
substance,measurement,setting,value
"divergicin M35: class IIa bacteriocin of 43 amino acids, 4518 Da, produced by Carnobacterium divergens strain M35 (SEQ ID NO: 1) (TKYYGNGVYCNSKKCWVDWGTAQGCIDVVIGQLGGGIPGKGKC; listed as Carnobacterium divergens)",Diameter of inhibition zone (mm),Carnobacterium divergens,15.0 ± 1 mm
same,Sensitivity to divergicin M35,Carnobacterium divergens,+
same,Diameter of inhibition zone (mm),Carnobacterium piscicola,17.5 ± 1 mm
same,Sensitivity to divergicin M35,Carnobacterium piscicola,+
same,Sensitivity to divergicin M35,Escherichia coli; Escherichia coli 22,−
same,Sensitivity to divergicin M35,Escherichia coli; Escherichia coli 43,−
same,effect on Gram-negative strains (in words),Escherichia coli; Escherichia coli strains tested,not affected
same,Diameter of inhibition zone (mm),L. grayi,15.0 ± 1 mm
same,Sensitivity to divergicin M35,L. grayi,+
same,Diameter of inhibition zone (mm),L. innocua,21 ± 0.5 mm
same,Sensitivity to divergicin M35,L. innocua,+
same,Diameter of inhibition zone (mm),L. murayi,17.5 ± 1 mm
same,Sensitivity to divergicin M35,L. murayi,+
same,Diameter of inhibition zone (mm),L. seeligeri,13.5 ± 1 mm
same,Sensitivity to divergicin M35,L. seeligeri,+
same,Diameter of inhibition zone (mm),L. welshimeri,20 ± 0.5 mm
same,Sensitivity to divergicin M35,L. welshimeri,+
same,time the antibacterial activity (diameter of the inhibition zone) remained stable,Listeria monocytogenes; in every case (sensitive Listeria strains),≥ 36 h
same,number of strains sensitive to divergicin M35,Listeria monocytogenes; of the 24 tested strains of L. monocytogenes,22
same,Sensitivity to divergicin M35,Listeria monocytogenes; strain ATCC 19111,+
same,Sensitivity to divergicin M35,Listeria monocytogenes; strain ATCC 19112,+
same,Sensitivity to divergicin M35,Listeria monocytogenes; strain ATCC 19114,+
same,Sensitivity to divergicin M35,Listeria monocytogenes; strain ATCC 19115,+
same,Sensitivity to divergicin M35,Listeria monocytogenes; strain ATCC 35152,+
same,Sensitivity to divergicin M35,Listeria monocytogenes; strain LSD 15,−
same,sensitivity to divergicin M35 (in words),Listeria monocytogenes; strain LSD 15,resistant
same,Diameter of inhibition zone (mm),Listeria monocytogenes; strain LSD 332,18.5 ± 1 mm
same,Sensitivity to divergicin M35,Listeria monocytogenes; strain LSD 332,+
same,Diameter of inhibition zone (mm),Listeria monocytogenes; strain LSD 336,16.5 ± 0.5 mm
same,Sensitivity to divergicin M35,Listeria monocytogenes; strain LSD 336,+
same,Diameter of inhibition zone (mm),Listeria monocytogenes; strain LSD 338,18.0 ± 0.5 mm
same,Sensitivity to divergicin M35,Listeria monocytogenes; strain LSD 338,+
same,Diameter of inhibition zone (mm),Listeria monocytogenes; strain LSD 339,19.0 ± 0.5 mm
same,Sensitivity to divergicin M35,Listeria monocytogenes; strain LSD 339,+
same,Diameter of inhibition zone (mm),Listeria monocytogenes; strain LSD 340,17.0 ± 0.5 mm
same,Sensitivity to divergicin M35,Listeria monocytogenes; strain LSD 340,+
same,Diameter of inhibition zone (mm),Listeria monocytogenes; strain LSD 341,13.0 ± 0.5 mm
same,Sensitivity to divergicin M35,Listeria monocytogenes; strain LSD 341,+
same,Diameter of inhibition zone (mm),Listeria monocytogenes; strain LSD 346,17.5 ± 1 mm
same,Sensitivity to divergicin M35,Listeria monocytogenes; strain LSD 346,+
same,Diameter of inhibition zone (mm),Listeria monocytogenes; strain LSD 348,17.5 ± 1 mm
same,Sensitivity to divergicin M35,Listeria monocytogenes; strain LSD 348,+
same,Diameter of inhibition zone (mm),Listeria monocytogenes; strain LSD 523,10 ± 1^b mm
same,Sensitivity to divergicin M35,Listeria monocytogenes; strain LSD 523,+
same,Diameter of inhibition zone (mm),Listeria monocytogenes; strain LSD 524,22.0 ± 1^b mm
same,Sensitivity to divergicin M35,Listeria monocytogenes; strain LSD 524,+
same,Sensitivity to divergicin M35,Listeria monocytogenes; strain LSD 525,−
same,sensitivity to divergicin M35 (in words),Listeria monocytogenes; strain LSD 525,resistant
same,Diameter of inhibition zone (mm),Listeria monocytogenes; strain LSD 526,21.0 ± 1 mm
same,Sensitivity to divergicin M35,Listeria monocytogenes; strain LSD 526,+
same,Diameter of inhibition zone (mm),Listeria monocytogenes; strain LSD 529,14.5 ± 0.5 mm
same,Sensitivity to divergicin M35,Listeria monocytogenes; strain LSD 529,+
same,Diameter of inhibition zone (mm),Listeria monocytogenes; strain LSD 530,19.0 ± 1 mm
same,Sensitivity to divergicin M35,Listeria monocytogenes; strain LSD 530,+
same,Diameter of inhibition zone (mm),Listeria monocytogenes; strain LSD 531,18.5 ± 1 mm
same,Sensitivity to divergicin M35,Listeria monocytogenes; strain LSD 531,+
same,Diameter of inhibition zone (mm),Listeria monocytogenes; strain LSD 532,20.0 ± 0.5^b mm
same,Sensitivity to divergicin M35,Listeria monocytogenes; strain LSD 532,+
same,Diameter of inhibition zone (mm),Listeria monocytogenes; strain LSD 535,19.0 ± 0.5 mm
same,Sensitivity to divergicin M35,Listeria monocytogenes; strain LSD 535,+
same,Diameter of inhibition zone (mm),Listeria monocytogenes; strain LSD 538,20.0 ± 0.5 mm
same,Sensitivity to divergicin M35,Listeria monocytogenes; strain LSD 538,+
same,Sensitivity to divergicin M35,Bifidobacterium breve,−
same,Sensitivity to divergicin M35,L. ivanovii; strain ATCC19119,−
same,Sensitivity to divergicin M35,L. ivanovii; strain HPB28,+
same,Sensitivity to divergicin M35,[1],−
same,Sensitivity to divergicin M35,Lactobacillus casei,−
same,Sensitivity to divergicin M35,[2],−
same,Sensitivity to divergicin M35,Lactobacillus plantarum,−
same,Sensitivity to divergicin M35,Lactobacillus rhamnosus,−
same,Sensitivity to divergicin M35,Lactobacillus salivarius,−
same,Sensitivity to divergicin M35,[3]; strain R 0100,−
same,Sensitivity to divergicin M35,[3]; strain UL719,−
same,Sensitivity to divergicin M35,[4],−
same,Sensitivity to divergicin M35,Pediococcus acidilactici; strain R 1001,−
same,Sensitivity to divergicin M35,Pediococcus acidilactici; strain UL 5,−
same,Sensitivity to divergicin M35,Pediococcus pentosaceus,−
same,Sensitivity to divergicin M35,[5],−
same,Sensitivity to divergicin M35,Propionibacterium sp.,−
same,Sensitivity to divergicin M35,[6],−
same,Increase in specific Activity (fold),L. innocua HPB13 [7],9500 fold
same,biological activity of divergicin M35 in culture,L. innocua HPB13 [8]; after 10 h of growth,approximately 18000 AU/ml
same,"biological activity of divergicin M35 in culture, maximum",L. innocua HPB13 [8]; after 14 h of growth,65000 AU/ml
